Laboratory results taken from article PMC3034772 (Pharmaceutical research, 2010).
Values joined by “and” are separate entries in the source; they are usually repeats but may differ in a detail not shown here. Identical values can stand only once. Like-named read-outs stand apart in the source and are kept apart here.

Columns and labels:
[1] = Charge class Q, dominant calculated charge state at pH 7.4; assay type: physicochemical
[2] = In combo PAMPA-BBB model, calculated log Po in situ
[3] = PAMPA; for Pm^7.4: pH 7.4
[4] = in vivo
[5] = in vivo; cited from earlier work
[6] = cited from earlier work
PAMPA-BBB Type II = conditions: 3 μL lipid-volume coated filters
[7] = PAMPA; for Pm^7.4: pH 7.4; remark: listed apart in the source
[8] = ref [38], cited from earlier work
[9] = In situ brain perfusion, individual literature values; conditions: from literature PS
Double-Sink PAMPA = conditions: intrinsic permeability, Type DS, Double-Sink PAMPA data scaled to the 3 μL level
[10] = pKa determination, potentiometric; conditions: this work, 25°C, […] KCl (footnote b)
[11] = PAMPA
physchem = conditions: pKa
[12] = cited from earlier work; remark: listed apart in the source
[13] = In situ brain perfusion permeability; conditions: efflux inhibition bcrp(−/−); from literature PS
[14] = mouse, in vivo
[15] = dominant calculated concentration fraction of the drug in a charge state
[16] = efflux inhibition column: not satbl

Structure (SMILES)	Q (charge class) [1]	obs–calc (log Po^in situ) [2]	log PABL [3]	log Po [3]	log Ppara [3]	Pm^7.4 [3]	log Po^in situ (obs) [4]	PS ([6]; in vivo)	log PS ([6]; in vivo)	Q (charge class) [1, 15]	obs–calc (log Po^in situ) ([2]; no efflux inhibition)	log Po [7]	Pm^7.4 [7]	also measured
COc1ccc2c3c1O[C@H]1[C@@H](O)C=C[C@H]4[C@@H](C2)N(C)CC[C@@]341 [Codeine]	+	−0.2	−4.69	−3.68	−7.16	27	−3.80	33 10^−4 mLg^−1s^−1	−2.48					log BB (brain-to-plasma total concentration ratio) [5]: 0.55
COc1ccc(C(CN(C)C)C2(O)CCCCC2)cc1 (centres unmarked) [Venlafaxine]	+	0.6					−1.66	104 10^−4 mLg^−1s^−1	−1.98					log Po (PAMPA-BBB Type II; PAMPA-BBB intrinsic permeability, Type II and I/II): −2.17; log PABL (PAMPA-BBB Type II; aqueous boundary layer permeability, Type II and I/II): −3.22; Pm^7.4 (PAMPA-BBB Type II; membrane permeability at pH 7.4, Type II and I/II): 32
CC(C)n1c(/C=C/C(O)CC(O)CC(=O)O)c(-c2ccc(F)cc2)c2ccccc21 (centres unmarked) [Fluvastatin Acid]										−	0.9	−3.56	0.2	
CC(C(=O)O)c1ccc(-c2ccccc2)c(F)c1 (centres unmarked) [Flurbiprofen]			−2.84	−2.35	−6.99	3		158 10^−4 mLg^−1s^−1	−1.80	−				obs–calc (log Po^in situ) [2, 16]: 0.0; pKa [8]: 4.18; log Po^in situ (obs) [9, 16]: −0.58
CCCC(CCC)C(=O)O [Valproic Acid]								93 10^−4 mLg^−1s^−1	−2.03	−				obs–calc (log Po^in situ) ([2]; efflux inhibition column: Kd): −0.2; obs–calc (log Po^in situ) ([2]; efflux inhibition mdr1a(−/−)): −0.2; log Po (Double-Sink PAMPA): −3.77; log Po^in situ (obs) ([9]; efflux inhibition column: Kd): −2.54
OCCOCCN1CCN(C(c2ccccc2)c2ccc(Cl)cc2)CC1 (centres unmarked) [Hydroxyzine]			−3.26	−3.72	−8	82				0	0.7			obs–calc (log Po^in situ) ([2]; efflux inhibition CsA): 0.6; pKa [8]: 7.52; pKa ([8]; second pKa column): 2.66; PS ([6]; efflux inhibition CsA): 393 10^−4 mLg^−1s^−1; log PS ([6]; efflux inhibition CsA): −1.41; log Po^in situ (obs) ([9]; efflux inhibition CsA): −3.04
O=C(O)CCCc1ccc(N(CCCl)CCCl)cc1 [Chlorambucil]	−	0.3	−2.87	−2.45	−7.16	6	−0.80	250 10^−4 mLg^−1s^−1	−1.60					pKa ([10]; second pKa column): 4.28; pKa [10]: 4.6
CN/C(=N/CCSCc1nc[nH]c1C)NC#N [Cimetidine]										0	−0.4 and −0.2			obs–calc (log Po^in situ) ([2]; efflux inhibition bcrp(−/−)): −0.4; obs–calc (log Po^in situ) ([2]; efflux inhibition mdr1a(−/−)): 0.0; log PABL [11]: −4.62; log Po [11]: −6.40; Pm^7.4 ([11]; pH 7.4): 0.4; pKa (physchem): 6.13; PS ([12]; efflux inhibition bcrp(−/−)): 1 10^−4 mLg^−1s^−1; log PS ([12]; efflux inhibition bcrp(−/−)): −4.08; log Po^in situ (obs) [13]: −5.95
CCOC(=O)C1(c2ccccc2)CCN(C)CC1 [Meperidine]	+	−0.5					−2.05	549 10^−4 mLg^−1s^−1	−1.26			−1.68	1290	log Po^in situ (obs) [14]: −2.08; PS ([12]; mouse, in vivo): 525 10^−4 mLg^−1s^−1; log PS ([12]; mouse, in vivo): −1.28
NC(Cc1ccc(F)cc1)C(=O)O (centres unmarked) [p-F-Phenylalanine]	±											−6.13	0.7	
